Experimental data: US20190284286A1, “Modulation of Type I Interferons to Reactivate HIV-1 Reservoir and Enhance HIV-1 Treatment” (The University of North Carolina at Chapel Hill, priority 2016, published 2019)

Key:
CD4 T cells = assay: Ex vivo culture of splenocytes from HIV-1 persistently infected humanized mice; assay type: cell-based; conditions: for number of live CD4 T cells (CD4 T cell depletion) / active caspase-3 / apoptosis of CD4 T cells: 10 days culture, Z-DEVD-FMK 10 μM; for number of live CD4 T cells (CD4 T cell depletion): Ac-YVAD-CMK 50 μM
Method: Mice were sacrificed at 10 wpi. […] At day 10, the cells were counted and used for analysis. (B) HIV-1 RNA levels in culture supernatant. (C-D) Representative dot plots (C) and summarized data (D) show percentages of CD4 T cells with active caspase-3. (E) Number of live CD4 T cells in each group. (F-I) Splenocytes from mock (n=2) or HIV-1 infected (n=4) humanized mice were cultured with IL-2 in vitro in the presence of DMSO or caspase-3 inhibitor Z-DEVD-FMK or caspase-1 inhibitor Ac-YVAD-CMK for 10 days. At day 10, the cells were counted and used for staining. (F-G) Representative dot plots (F) and summarized data (G) show percentages of active caspase-3^+ CD4 T cells. (H-I) Number of live CD4 T cells in each group. Data are one representative of 2 independent experiments with mean values±s.e.m.). *P<0.05, **P<0.01 by unpaired, two-tailed Student's t-test to compare differences between each two groups.
For surface staining, single cell suspensions prepared from peripheral blood, spleen, or mesenteric lymph nodes of humanized mice were stained with surface markers and analyzed on a CyAn ADP flow cytometer (Dako). For intracellular staining, cells were first stained with surface markers, and then fixed and permeabilized with cytofix/cytoperm buffer (BD Bioscience), followed by intracellular staining. PE-conjugated anti-human active caspase-3 (C92-605) was used to detect intracellular activation of caspase-3. Fluorescent labeled inhibitors of caspases-1 probe assay (FLICA 660 Caspase-1 Assay Kit, ImmunoChemistry Technologies) were performed to determine intracellular activation of caspases-1. Data were analyzed using Summit4.3 software (Dako).
Media were half-changed every 2-3 days. At day 10, the cells were counted and used for staining.

HIV-1 = conditions: long-term IFN-α during and after ART; cited from earlier work
[1] = α-IFNAR1 10 μg/ml, IFN-α 200 u/ml

Row | Compound | number of live CD4 T cells (CD4 T cell depletion) (CD4 T cells) | active caspase-3 / apoptosis of CD4 T cells (CD4 T cells; [1]) | HIV-1 replication (HIV-1 RNA in culture supernatant) (CD4 T cells; 10 days culture with IL-2, α-IFNAR1 10 μg/ml, IFN-α 200 u/ml) | patients with suppression of HIV-1 rebound (HIV-1) [%]
1 | CC(=O)N[C@@H](Cc1ccc(O)cc1)C(=O)N[C@H](C(=O)N[C@@H](C)C(=O)N[C@@H](CC(=O)O)C(=O)CCl)C(C)C [Ac-YVAD-CMK, reference compound] | did not prevent CD4 T cell depletion | – | – | –
2 | COC(=O)CC[C@H](NC(=O)[C@H](CC(=O)OC)NC(=O)OCc1ccccc1)C(=O)N[C@H](C(=O)N[C@@H](CC(=O)OC)C(=O)CF)C(C)C [Z-DEVD-FMK, reference compound] | rescued CD4 T cell number | reduced HIV-1 induced CD4 T cell apoptosis | – | –
3 | IFN-α | accelerated CD4 T cell depletion | further increased the level of active caspase-3 | inhibited HIV-1 replication | ~40
